The compounds below were run against T1, TLR7/NFKb HEK cells (Homo sapiens, UniProt Q9NYK1) (assay: HEK Cell Assay (TLR7/NFKb reporter, Steady-Glo luciferase readout)). Conditions: 30 min compound preincubation, then R*48 agonist for 5 hours, read-out: Potency.
T1 construct: expressed in transfected cells; host or cells: HEK cells (TLR7/NFKb reporter line)
T1 sequence (Q9NYK1 27-1049): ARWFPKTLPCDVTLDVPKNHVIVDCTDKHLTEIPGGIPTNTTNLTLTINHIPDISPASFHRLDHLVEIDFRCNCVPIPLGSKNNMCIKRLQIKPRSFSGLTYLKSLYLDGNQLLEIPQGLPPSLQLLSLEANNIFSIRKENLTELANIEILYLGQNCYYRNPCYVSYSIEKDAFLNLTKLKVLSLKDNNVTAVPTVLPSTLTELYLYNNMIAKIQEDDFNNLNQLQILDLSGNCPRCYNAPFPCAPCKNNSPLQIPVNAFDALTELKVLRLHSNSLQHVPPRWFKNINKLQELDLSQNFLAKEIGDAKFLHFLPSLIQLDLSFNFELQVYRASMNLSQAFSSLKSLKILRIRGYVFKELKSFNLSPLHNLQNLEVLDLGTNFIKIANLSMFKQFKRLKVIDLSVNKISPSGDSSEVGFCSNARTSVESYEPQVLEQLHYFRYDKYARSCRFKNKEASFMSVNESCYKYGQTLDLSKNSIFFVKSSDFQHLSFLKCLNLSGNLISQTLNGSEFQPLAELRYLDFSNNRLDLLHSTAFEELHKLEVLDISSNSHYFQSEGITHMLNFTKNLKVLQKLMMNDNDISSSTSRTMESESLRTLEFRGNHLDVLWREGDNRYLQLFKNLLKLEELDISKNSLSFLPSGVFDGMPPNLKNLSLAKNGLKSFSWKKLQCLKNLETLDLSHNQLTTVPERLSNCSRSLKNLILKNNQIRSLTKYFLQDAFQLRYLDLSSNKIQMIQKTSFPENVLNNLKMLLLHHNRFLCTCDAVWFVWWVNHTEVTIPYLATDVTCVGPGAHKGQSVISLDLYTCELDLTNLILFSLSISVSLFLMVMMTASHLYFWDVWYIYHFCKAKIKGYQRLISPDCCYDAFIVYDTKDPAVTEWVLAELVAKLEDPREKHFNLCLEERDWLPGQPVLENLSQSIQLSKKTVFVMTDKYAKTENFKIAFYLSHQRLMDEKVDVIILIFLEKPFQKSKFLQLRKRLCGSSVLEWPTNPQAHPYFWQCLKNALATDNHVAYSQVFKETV
Assay type: cell-based
Procedure, shortened: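 Steady-Glo luminescence after 5 h stimulation with R*48 agonist, following 30 min compound preincubation. Assay run in HEK cells carrying a TLR7/NFKb luciferase reporter, plated at 5000 cells/well and grown 24 h at 37° C (10% CO2) before treatment.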

Row | IC50 | SMILES
1 | 1 to 10 µM | C[C@H]1C[C@@H](NC(=O)CN2CC(O)C2)CN(c2ccc(C(F)F)c3nccnc23)C1 [Compound 320, N-[(3R,5S)-1-[8-(difluoromethyl)quinoxalin-5-yl]-5-methylpiperidin-3-yl]-2-(3-hydroxyazetidin-1-yl)acetamide]
2 | 1 to 10 µM | CC(C(=O)N[C@@H]1C[C@H](C)CN(c2ccc(C(F)F)c3nccnc23)C1)N1CC(O)C1 (stereo partly drawn) [Compound 321, N-[(3R,5S)-1-[8-(difluoromethyl)quinoxalin-5-yl]-5-methylpiperidin-3-yl]-2-(3-hydroxyazetidin-1-yl)propanamide]
3 | 1 to 10 µM | C[C@H]1C[C@@H](NC(=O)CC2CC2(F)F)CN(c2ccc(C(F)F)c3nccnc23)C1 (stereo partly drawn) [Compound 322, 2-(2,2-difluorocyclopropyl)-N-[(3R,5S)-1-[8-(difluoromethyl)quinoxalin-5-yl]-5-methylpiperidin-3-yl]acetamide]
4 | 1 to 10 µM | CC(C(=O)N[C@@H]1C[C@H](C)CN(c2ccc(C(F)F)c3nccnc23)C1)N1CC(F)(F)C1 (stereo partly drawn) [Compound 323, 2-(3,3-difluoroazetidin-1-yl)-N-[(3R,5S)-1-[8-(difluoromethyl)quinoxalin-5-yl]-5-methylpiperidin-3-yl]propanamide]
5 | 1 to 10 µM | C[C@H]1C[C@@H](NC(=O)CC2CNC2)CN(c2ccc(C(F)F)c3nccnc23)C1 [Compound 324, 2-(azetidin-3-yl)-N-[(3R,5S)-1-[8-(difluoromethyl)quinoxalin-5-yl]-5-methylpiperidin-3-yl]acetamide]
6 | 1 to 10 µM | CC(C(=O)N[C@@H]1C[C@H](C)CN(c2ccc(C(F)F)c3nccnc23)C1)N1CCC(O)CC1 (stereo partly drawn) [Compound 325, N-[(3R,5S)-1-[8-(difluoromethyl)quinoxalin-5-yl]-5-methylpiperidin-3-yl]-2-(4-hydroxypiperidin-1-yl)propanamide]
7 | < 1 µM | C[C@H]1C[C@@H](NC(=O)CN2CCCN(C)CC2)CN(c2ccc(C(F)F)c3nccnc23)C1 [Compound 326, N-[(3R,5S)-1-[8-(difluoromethyl)quinoxalin-5-yl]-5-methylpiperidin-3-yl]-2-(4-methyl-1,4-diazepan-1-yl)acetamide]
8 | < 1 µM | C[C@H]1C[C@@H](NC(=O)CC(C)(C)CN)CN(c2ccc(C(F)F)c3nccnc23)C1 [Compound 327, 4-amino-N-[(3R,5S)-1-[8-(difluoromethyl)quinoxalin-5-yl]-5-methylpiperidin-3-yl]-3,3-dimethylbutanamide]
9 | < 1 µM | C[C@H]1C[C@@H](NC(=O)CC2CCN(C)CC2)CN(c2ccc(C(F)F)c3nccnc23)C1 [Compound 328, N-[(3R,5S)-1-[8-(difluoromethyl)quinoxalin-5-yl]-5-methylpiperidin-3-yl]-2-(1-methylpiperidin-4-yl)acetamide]
10 | 1 to 10 µM | C[C@H]1C[C@@H](NC(=O)C2CC(F)(F)C2)CN(c2ccc(C(F)F)c3nccnc23)C1 [Compound 329, N-[(3R,5S)-1-[8-(difluoromethyl)quinoxalin-5-yl]-5-methylpiperidin-3-yl]-3,3-difluorocyclobutane-1-carboxamide]
11 | < 1 µM | C[C@H]1C[C@@H](NC(=O)CC2CN(C)C2)CN(c2ccc(C(F)(F)F)c3nccnc23)C1 [Compound 363, N-[(3R,5S)-5-methyl-1-[8-(trifluoromethyl)quinoxalin-5-yl]piperidin-3-yl]-2-(1-methylazetidin-3-yl)acetamide]

The next lines start with the compound.

Row | SMILES | IC50
12 | C[C@H]1C[C@@H](N)CN(c2ccc(F)c3ncccc23)C1 [Compound 341, (3R,5S)-1-(8-fluoroquinolin-5-yl)-5-methylpiperidin-3-amine] | < 1 µM
13 | C[C@H]1C[C@@H](N)CN(c2c(F)cc(C#N)c3nccnc23)C1 [Compound 342, 8-[(3R,5S)-3-amino-5-methylpiperidin-1-yl]-7-fluoroquinoxaline-5-carbonitrile] | 1 to 10 µM
14 | C[C@H]1C[C@@H](NC(=O)CC(C)(C)C)CN(c2c(F)cc(C#N)c3nccnc23)C1 [Compound 343, N-[(3R,5S)-1-(8-cyano-6-fluoroquinoxalin-5-yl)-5-methylpiperidin-3-yl]-3,3-dimethylbutanamide] | 1 to 10 µM
15 | COCCN[C@@H]1C[C@H](C)CN(c2c(F)cc(C#N)c3nccnc23)C1 [Compound 344, 7-fluoro-8-[(3R,5S)-3-[(2-methoxyethyl)amino]-5-methylpiperidin-1-yl]quinoxaline-5-carbonitrile] | 1 to 10 µM
16 | C[C@H]1C[C@@H](NC(=O)CN(C)C)CN(c2c(F)cc(C#N)c3nccnc23)C1 [Compound 347, N-[(3R,5S)-1-(8-cyano-6-fluoroquinoxalin-5-yl)-5-methylpiperidin-3-yl]-2-(dimethylamino)acetamide] | 1 to 10 µM
17 | C[C@H]1C[C@@H](NC(=O)CN2CCC(F)(F)CC2)CN(c2ccc(C#N)c3nccnc23)C1 [Compound 348, N-[(3R,5S)-1-(8-cyanoquinoxalin-5-yl)-5-methylpiperidin-3-yl]-2-(4,4-difluoropiperidin-1-yl)acetamide] | < 1 µM
18 | C[C@H]1C[C@@H](NC(=O)C(C)(C)C2CCN(C)CC2)CN(c2ccc(C#N)c3nccnc23)C1 [Compound 349, N-[(3R,5S)-1-(8-cyanoquinoxalin-5-yl)-5-methylpiperidin-3-yl]-2-methyl-2-(1-methylpiperidin-4-yl)propanamide] | < 1 µM
19 | C[C@H]1C[C@@H](NC(=O)CN2CCC(F)(F)CC2)CN(c2ccc(C(F)(F)F)c3ncccc23)C1 [Compound 350, 2-(4,4-difluoropiperidin-1-yl)-N-[(3R,5S)-5-methyl-1-[8-(trifluoromethyl)quinolin-5-yl]piperidin-3-yl]acetamide] | < 1 µM
20 | C[C@H]1C[C@@H](NC(=O)C(C)(C)C2CCN(C)CC2)CN(c2ccc(C(F)(F)F)c3ncccc23)C1 [Compound 351, 2-methyl-N-[(3R,5S)-5-methyl-1-[8-(trifluoromethyl)quinolin-5-yl]piperidin-3-yl]-2-(1-methylpiperidin-4-yl)propanamide] | < 1 µM
21 | C[C@H]1C[C@@H](NC(=O)CN2CCC(F)(F)CC2)CN(c2ccc(C(F)(F)F)c3nccnc23)C1 [Compound 354, 2-(4,4-difluoropiperidin-1-yl)-N-[(3R,5S)-5-methyl-1-[8-(trifluoromethyl)quinoxalin-5-yl]piperidin-3-yl]acetamide] | 1 to 10 µM
22 | C[C@H]1C[C@@H](NC(=O)C(C)(C)C2CCN(C)CC2)CN(c2ccc(C(F)(F)F)c3nccnc23)C1 [Compound 355, 2-methyl-N-[(3R,5S)-5-methyl-1-[8-(trifluoromethyl)quinoxalin-5-yl]piperidin-3-yl]-2-(1-methylpiperidin-4-yl)propanamide] | < 1 µM
23 | C[C@H]1C[C@@H](NC(=O)CN2CC(N)C2)CN(c2ccc(C#N)c3nccnc23)C1 [Compound 356, 2-(3-aminoazetidin-1-yl)-N-[(3R,5S)-1-(8-cyanoquinoxalin-5-yl)-5-methylpiperidin-3-yl]acetamide] | < 1 µM
24 | C[C@H]1C[C@@H](NC(=O)CC2CN(C)C2)CN(c2ccc(C#N)c3nccnc23)C1 [Compound 359, N-[(3R,5S)-1-(8-cyanoquinoxalin-5-yl)-5-methylpiperidin-3-yl]-2-(1-methylazetidin-3-yl)acetamide] | < 1 µM
25 | C[C@H]1C[C@@H](NC(=O)CC2CN(C)C2)CN(c2ccc(C(F)(F)F)c3ncccc23)C1 [Compound 360, N-[(3R,5S)-5-methyl-1-[8-(trifluoromethyl)quinolin-5-yl]piperidin-3-yl]-2-(1-methylazetidin-3-yl)acetamide] | < 1 µM
26 | C[C@H]1C[C@@H](NC(=O)CN2CC(N)C2)CN(c2ccc(C(F)(F)F)c3nccnc23)C1 [Compound 361, 2-(3-aminoazetidin-1-yl)-N-((3R,5S)-5-methyl-1-(8-(trifluoromethyl)quinoxalin-5-yl)piperidin-3-yl)acetamide] | < 1 µM
27 | C[C@H]1C[C@@H](NC(=O)CN2CCCN(C)CC2)CN(c2ccc(C(F)(F)F)c3nccnc23)C1 [Compound 362, 2-(4-methyl-1,4-diazepan-1-yl)-N-[(3R,5S)-5-methyl-1-[8-(trifluoromethyl)quinoxalin-5-yl]piperidin-3-yl]acetamide] | < 1 µM
28 | C[C@H]1C[C@@H](NC(=O)CC2CN(C)C2)CN(c2ccc(C(F)F)c3ncccc23)C1 [Compound 364, N-[(3R,5S)-1-[8-(difluoromethyl)quinolin-5-yl]-5-methylpiperidin-3-yl]-2-(1-methylazetidin-3-yl)acetamide] | < 1 µM

Source: US10947213B1 (Merck Patent GmbH, priority 2015, dated 2021)
